Assay results reported in patent publication US7358046B2, “Sensitivity test to predict efficacy of anti-cancer therapies” (Canbas Co., Ltd., priority 2003, dated 2008).
“Also recorded” adds a separate entry of the source. Non-standard residues stand in square brackets, D forms with d. No end group written: not given here. dPhe(F5) = N[C@H](Cc1c(F)c(F)c(F)c(F)c1F)C(=O)O; dBpa = N[C@H](Cc1ccc(C(=O)c2ccccc2)cc1)C(=O)O; dCha = N[C@H](CC1CCCCC1)C(=O)O

Experiments:
HCT-116 xenografts = experiment: Surrogate in vivo efficacy test: HCT-116 xenograft tumor assay; set-up: species or system SCID mice; conditions: for HCT-116 xenograft tumor growth, combination: intraperitoneal, two weeks
Experimental: HCT-116 cells were implanted by subcutaneous injection of the cells into male SCID mice (Severe Combined Immunodeficient mice, Charles River Lab., Wilmington, Mass.). Treatment was initiated when the tumor size reached about 0.2 cm^3 in size. The size of tumors was measured three times per week, using calipers. Tumor volumes were calculated as follows: volume (cm^3)=[width (mm)^2×length (mm)]/2000. Mean tumor sizes (volumes) with standard deviation were plotted (FIG. 1b). Animals were housed in accordance with guidelines from American Association for Laboratory Animal Care and the protocols were approved by institutional animal care committee of CanBas Co. Ltd
(§1) Established HCT-116 xenografts (0.2 cm^3) in SCID mice were treated for two weeks by intraperitoneal injection of the following: vehicle alone (DMSO, two times per week), CBDC402 (40 mg/kg; two times per week), CPT-11 (20 mg/kg; one time per week) or the combination of CBDC402 (two times per week) and CPT-11 (one time per week). […] The results correlate with the prediction based on results from the in vitro sensitivity test using CBDC004 as described above.
Surrogate in vivo efficacy test: A surrogate in vivo efficacy test measuring the effects of various compounds on HCT-116 xenograft tumor growth was carried out as described above, with the modification that CBDC004 was used instead of CBDC402.
as §1, with “week), CBDC004 (30” for “week), CBDC402 (40”, “mg/kg; three” for “mg/kg; two”

HCT-116 cells = experiment: In vitro sensitivity test: DNA content of cells by flow cytometry; type: cell-based, human; conditions: for change in DNA content (cell cycle distribution) of HCT-116 cells: compound alone, 2, 10, or 50 μM for 3 hr
Experimental: Cells from a human colon cancer derived cell line HCT-116 were used in an in vitro sensitivity test that measures DNA content of cells by flow cytometry, and in an in vivo efficacy test that measures xenograft tumor growth. The effects of conventional anti-cancer therapy CPT-11, novel candidate anti-cancer therapy CBDC402, a combination of the two compounds, or control treatments (vehicle), were measured in each test system and compared.
In vitro sensitivity test: HCT-116 cells (from ATCC) were cultured in McCOY5A medium (Sigma Chemical Co.) with L-glutamine (Sigma Chemical Co.), penicillin-streptomycin, and 10% fetal calf serum at 37° C. in 5% CO2/air. Cultured cells (at 1.6×10^5) were pelleted by centrifugation, and then re-suspended and incubated in 300 μl Krishan's solution (0.1% sodium citrate, 50 μg/ml propidium iodide, 20 μg/ml RNase A, 0.5% Nonidet P-40) for 1 h at 4° C. The quantity of DNA in each cell was determined using a fluorescence activated cell scanner (FACScan® Beckton Dickinson, Mountain View, Calif.), and results were analyzed using CELLQuest® software (Beckton Dickinson).
The DNA content of each cell was measured at 24 hr.
In vitro sensitivity test: The in vitro sensitivity test using HCT-116 cells and flow cytometry was carried out as described above, with the modification that CBDC004 was used instead of CBDC402. The DNA content of each cell was measured at 24 hr.

MIAPaCa2 cells = experiment: In vitro sensitivity test: laser scanning cytometry of cultured xenograft tumor cells on chamber slides; conditions: for anti-cancer efficacy in vitro, human cancerous cells in culture: each compound alone (summary of Example 3)
Experimental: As a simulation of the sensitivity test for the clinical situation, established xenograft tumors of MIAPaCa2 cells in SCID mice were extracted from the mice and cultured in vitro in the presence or absence of a conventional anti-cancer therapy and a novel candidate anti-cancer therapy CBP501 (SEQ ID NO: 26), according to the protocol as follows.
Xenograft tumors of MIAPaCa2 cells were excised from xenograft tumor bearing mice and place in a 10 cm plate with 10 ml of complete culture medium (DMEM (Dainihonseiyaku Co., Osaka, Japan) with 2.5% horse serum (Invitrogen Co., Carlsbad, Calif.) for MIAPaCa2 with 10% fetal calf serum (Equitech-bio, Kerrville, Tex.) at 37° C. with 5% CO2/air). The tissue was sliced into small pieces and non-tumor tissue was removed to the extent possible. The sliced pieces were placed in another 10 cm plate with complete culture medium and minced with a razor blade. The cells were then dispersed in culture medium by pipetting, and centrifuged for 5 min at 1200×g.
The cell pellet was then incubated in buffer containing collagenase for 2 hours at 37° C. After centrifuging a second time, the cell pellet was incubated in buffer containing trypsin for 5 min at room temperature, then suspended in the culture medium, passed through nylon mesh, and re-centrifuged. Pelleted cells were resuspended and the resuspended cells were seeded onto chamber slides and cultured overnight in an incubator.
Cells in chamber slides were treated with anti-cancer therapies or control treatments as follows: control solution, CBP501 (SEQ ID NO: 26) at 10 μM, cisplatin (CDDP) at 10 μg/ml, or a combination of CBP501 and cisplatin were added to chamber slides and incubated for 3 hours. Culture medium was changed and chamber slides were cultured for an additional 24 to 48 hours.
At the beginning of the designated day (day 3, 4, or 5), medium was aspirated from chamber slides and cells were fixed by addition of 70% ethanol followed by incubation for 15 minutes at room temperature. The supernatant was discarded, and phosphate buffered saline with 50 μg/ml propidium iodide (Sigma, St. Louis, Mo.) with 0.1% RNase (Sigma) was added to the slides and incubated for 30 minutes at room temperature. Cells on the chamber slides were then analyzed by Laser Scanning Cytomery (LSC® System, with Olympus microscope).

[1] = system: MIAPaCa2 cells xenograft tumors; experiment: Surrogate in vivo efficacy test: MIAPaCa2 xenograft tumor assay; set-up: species or system SCID mice
Experimental: Surrogate in vivo efficacy test: A surrogate in vivo efficacy test using the xenograft tumor assay was carried out as described above, with modifications. MIAPaCa2 cells (n=5) were implanted by subcutaneous injection of the cells to male SCID mice (Charles River Lab., Wilmington, Mass.). Treatment was initiated when tumor size reached about 0.15 cm^3 in size. The size of tumors was measured three times per week, using calipers. Tumor volumes were calculated as follows: volume (cm^3)=[width (mm)^2×length (mm)]/2000. Mean tumor sizes (volumes) with standard deviation were plotted (FIG. 1b). Animals were housed in accordance with guidelines from American Association for Laboratory Animal Care and the protocols were approved by institutional animal care committee of CanBas Co. Ltd.
Established […] xenografts (0.2 cm^3) in SCID mice were treated two times each week for two weeks (i.e., on day 1, 5, 8, and 12) by intraperitoneal injection of the following: vehicle alone (DMSO); CBP501 (120 mg/m^2); cisplatin (CDDP, 3 mg/kg); a combination of CBP501 (30 mg/m^2) and cisplatin (CDDP, 3 mg/kg); a combination of CBP501 (60 mg/m^2) and cisplatin (CDDP, 3 mg/kg); or CBP501 (120 mg/m^2) and cisplatin (CDDP, 3 mg/kg).

[2] = compound 2, 10, 50 μM for 3 hr in combination with CPT-11 50 μM for 3 hr, measured at 24 hr
[3] = CPT-11 alone, 50 μM for 3 h, DNA content measured at 24 hr
[4] = CBP501 10 μM combined with cisplatin 10 μg/ml, 3 hours, then cultured 24 to 48 hours

COc1ccc(OC(=O)c2ccc(Cl)cc2)cc1 [CBDC004, 4-Chloro-benzoic acid 4-methoxy-phenyl ester]
HCT-116 xenograft tumor growth (HCT-116 xenografts; CBDC004 alone, 30 mg/kg intraperitoneal, three times per week for two weeks): did not suppress tumor growth | HCT-116 xenograft tumor growth, combination (HCT-116 xenografts; CBDC004 in combination with CPT-11 (one time per week)): did not suppress tumor growth | change in DNA content / G2/M and G1 populations of HCT-116 cells, combination treatment (HCT-116 cells; [2]): did not change the DNA content more than CPT-11 alone | change in DNA content (cell cycle distribution) of HCT-116 cells (HCT-116 cells; DNA content measured at 24 hr): did not alter the DNA content

Cc1ccc(OC(=O)c2ccc(Br)cc2)cc1 [CBDC402, 4-Bromo-benzoic acid p-tolyl ester]
HCT-116 xenograft tumor growth, combination (HCT-116 xenografts; CBDC402 (two times per week) plus CPT-11 (one time per week)): strong tumor suppressive activity | HCT-116 xenograft tumor growth (HCT-116 xenografts; CBDC402 alone, 40 mg/kg intraperitoneal, two times per week for two weeks): did not suppress tumor growth significantly | change in DNA content / G2/M and G1 populations of HCT-116 cells, combination treatment (HCT-116 cells; [2]): decrease in the accumulation of both the CPT-11-induced G2/M population and G1 population | subG1 (dead cell) population of HCT-116 cells, combination treatment (HCT-116 cells; [2]): increase in the subG1 (dead cell) population | change in DNA content (cell cycle distribution) of HCT-116 cells (HCT-116 cells; DNA content measured at 24 hr): did not alter the DNA content

CCc1c2c(nc3ccc(OC(=O)N4CCC(N5CCCCC5)CC4)cc13)-c1cc3c(c(=O)n1C2)COC(=O)[C@]3(O)CC [CPT-11, irinotecan, reference compound]
HCT-116 xenograft tumor growth (HCT-116 xenografts; CPT-11 alone, 20 mg/kg intraperitoneal, one time per week for two weeks): moderate tumor suppressive activity | change in cell cycle distribution (G1, G2/M populations) of HCT-116 cells (HCT-116 cells; [3]): changed the cell cycle distribution dramatically | sub-G1 (dead cell) population of HCT-116 cells (HCT-116 cells; [3]): no increase in the sub-G1 population

N.N.[Cl][Pt][Cl] [cisplatin, reference compound]
change in cell cycle distribution of cultured MIAPaCa2 xenograft tumor cells (MIAPaCa2 cells; cisplatin alone, 10 μg/ml for 3 hours, then cultured 24 to 48 hours): accumulation of cells in G2/M phase | anti-cancer efficacy in vitro, human cancerous cells in culture (MIAPaCa2 cells): some anti-cancer efficacy | xenograft tumor growth ([1]; cisplatin alone, 3 mg/kg intraperitoneal, two times each week for two weeks): little or no effect on tumor growth

(d-Bpa)(d-Ser)(d-Trp)(d-Ser)(d-Phe-2,3,4,5,6-F)(d-Cha)(d-Arg)(d-Arg)(d-Arg)(d-Gln)(d-Arg)(d-Arg) ([dBpa][dS][dW][dS][dPhe(F5)][dCha][dR][dR][dR][dQ][dR][dR]) [CBP501]
G1 and G2/M peaks of cultured MIAPaCa2 xenograft tumor cells, combination (MIAPaCa2 cells; [4]): dramatically decreased both the G1 and G2/M peaks | sub-G1 population of cultured MIAPaCa2 xenograft tumor cells, combination (MIAPaCa2 cells; [4]): increased the sub-G1 population | change in cell cycle distribution of cultured MIAPaCa2 xenograft tumor cells (MIAPaCa2 cells; CBP501 alone, 10 μM for 3 hours, then cultured 24 to 48 hours): cell cycle distribution was not significantly altered | cell death in the population of tumor cells by direct observation of cell morphology, combination (MIAPaCa2 cells; CBP501 combined with cisplatin): dramatic increase in cell death | anti-cancer effect in vitro, human cancerous cells in culture, combination (MIAPaCa2 cells; CBP501 combined with cisplatin (summary of Example 3)): more pronounced anti-cancer effect | anti-cancer efficacy in vitro, human cancerous cells in culture (MIAPaCa2 cells): some anti-cancer efficacy | xenograft tumor growth, combination ([1]; CBP501 (30, 60 or 120 mg/m^2) combined with cisplatin 3 mg/kg, intraperitoneal, two times each week for two weeks): more effective than either compound alone; also recorded: significant inhibition of xenograft tumor growth | xenograft tumor growth ([1]; CBP501 alone, 120 mg/m^2 intraperitoneal, two times each week for two weeks (day 1, 5, 8, 12)): little or no effect on tumor growth; also recorded: did not significantly inhibit xenograft tumor growth
